Test results: ChEMBL document CHEMBL1201862, “PubChem BioAssay data set” (2004)
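Test compounds were applied to cells in 96-well plates for 48 hours at 5 doses. The concentration for 50% growth inhibition is given as GI50.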 Active and inactive are the calls of the source. Cut-off read from the data, not from the text of the source: active = GI50 up to about 1.1 µM and inactive = higher.

Key:
Assay in all cases: growth of human tumour cells (NCI), 48 h
SF-539 = tested on: SF-539
SW-620 = tested on: SW-620
IGROV-1 = tested on: IGROV-1
786-0 = tested on: 786-0
UO-31 = tested on: UO-31
U-251 = tested on: U-251
M14 = tested on: M14
NCI-H522 = tested on: NCI-H522
SK-MEL-28 = tested on: SK-MEL-28
UACC-257 = tested on: UACC-257
Malme-3M = tested on: Malme-3M
COLO 205 = tested on: COLO 205
MOLT-4 = tested on: MOLT-4
SK-MEL-5 = tested on: SK-MEL-5
HT-29 = tested on: HT-29
RXF 393 = tested on: RXF 393
CAKI-1 = tested on: CAKI-1

Measured: GI50

Cc1ccccc1NC(=O)C(=O)C(c1cnc2ccc([N+](=O)[O-])cc2n1)[N+](=O)[O-] (configuration not stated)
inactive: SF-539 > 100 µM | SW-620 > 100 µM | IGROV-1 > 100 µM | 786-0 > 100 µM | UO-31 54 µM | U-251 > 100 µM | M14 > 100 µM | NCI-H522 27.4 µM | SK-MEL-28 > 100 µM | UACC-257 > 100 µM | Malme-3M > 100 µM | COLO 205 > 100 µM | MOLT-4 66.1 µM | SK-MEL-5 87.3 µM | HT-29 > 100 µM | RXF 393 > 100 µM | CAKI-1 > 100 µM

CC(C)(C)OC(=O)N1N=NC2C1C1CC(OCc3ccccc3)(OCc3ccccc3)C2O1 (configuration not stated)
inactive: SF-539 > 10 µM | SW-620 14.7 µM | IGROV-1 > 100 µM | 786-0 40.8 µM | UO-31 29.9 µM | U-251 55.1 µM | M14 44.1 µM | SK-MEL-28 29 µM | UACC-257 23.6 µM | Malme-3M 65.8 µM | COLO 205 > 100 µM | MOLT-4 7.82 µM | SK-MEL-5 16.8 µM | HT-29 > 100 µM | RXF 393 27.9 µM | CAKI-1 > 100 µM

CC12CC[C@@H](C(C)(C)O)C1[C@@H](O)CC1(C)C2CCC2[C@@]3(C)CC[C@H](O)C(C)(C)C3C(O)C[C@]21C (some centres not stated)
inactive: SF-539 15.8 µM | SW-620 18 µM | IGROV-1 17.7 µM | 786-0 12.1 µM | UO-31 21.6 µM | U-251 13.4 µM | M14 19.9 µM | SK-MEL-28 16.8 µM | UACC-257 > 10 µM | Malme-3M 13.8 µM | COLO 205 15.6 µM | MOLT-4 4.07 µM | SK-MEL-5 4.07 µM | HT-29 12.6 µM | RXF 393 6.85 µM

Cn1c(N)c(-c2c3ccccc3nc3ccccc23)c(=O)n(C)c1=O
inactive: SF-539 > 100 µM | SW-620 > 100 µM | IGROV-1 > 100 µM | 786-0 > 100 µM | U-251 > 100 µM | M14 > 100 µM | NCI-H522 > 100 µM | SK-MEL-28 > 100 µM | Malme-3M > 100 µM | COLO 205 > 100 µM | MOLT-4 > 100 µM | SK-MEL-5 > 100 µM | HT-29 > 100 µM | RXF 393 > 100 µM | CAKI-1 > 100 µM

CCc1cc(Cc2cc(CC)c(NC(=O)C3=CC(=O)CC(c4ccc(OC)cc4)O3)c(CC)c2Cl)c(Cl)c(CC)c1NC(=O)C1=CC(=O)CC(c2ccc(OC)cc2)O1 (configuration not stated)
inactive: SF-539 20.2 µM | SW-620 5.9 µM | IGROV-1 22.4 µM | 786-0 18.4 µM | UO-31 16.5 µM | U-251 12.9 µM | M14 17 µM | SK-MEL-28 23.3 µM | UACC-257 16 µM | Malme-3M 19.1 µM | COLO 205 17.8 µM | MOLT-4 31.8 µM | SK-MEL-5 20.3 µM | HT-29 20.2 µM | RXF 393 17.9 µM | CAKI-1 27.7 µM

N#CC(/C(=N/NC(=O)C(=O)NN)C(=O)Nc1nc([N+](=O)[O-])cs1)c1ccc(Cl)cc1 (configuration not stated)
inactive: SW-620 > 100 µM | IGROV-1 > 100 µM | 786-0 > 100 µM | UO-31 > 100 µM | U-251 > 100 µM | M14 > 100 µM | SK-MEL-28 > 100 µM | UACC-257 > 100 µM | Malme-3M > 100 µM | COLO 205 > 100 µM | MOLT-4 > 100 µM | SK-MEL-5 > 100 µM | HT-29 > 100 µM | RXF 393 > 100 µM

N#C/C1=C(\N)CCSSSC1
inactive: SF-539 33.4 µM | SW-620 44.6 µM | IGROV-1 29.7 µM | 786-0 35.8 µM | UO-31 56.4 µM | U-251 31.4 µM | M14 28.8 µM | NCI-H522 20.9 µM | SK-MEL-28 43.6 µM | UACC-257 35.8 µM | Malme-3M 34.5 µM | COLO 205 30.7 µM | MOLT-4 69.3 µM | SK-MEL-5 26.1 µM | HT-29 31 µM | RXF 393 58.3 µM | CAKI-1 58.7 µM

Cc1nnc2n1N=C(c1ccc(-c3ccc([N+](=O)[O-])cc3)o1)CS2
inactive: SF-539 > 100 µM | SW-620 > 100 µM | IGROV-1 > 100 µM | 786-0 > 100 µM | UO-31 > 100 µM | U-251 > 100 µM | M14 > 100 µM | NCI-H522 > 100 µM | SK-MEL-28 > 100 µM | UACC-257 > 100 µM | Malme-3M > 100 µM | COLO 205 > 100 µM | MOLT-4 > 100 µM | CAKI-1 > 100 µM

O=C(CCc1nnc2s/c(=C\c3ccc([N+](=O)[O-])cc3)c(=O)n12)Nc1ccc(Cl)c(Cl)c1
inactive: SF-539 17.9 µM | SW-620 25.2 µM | IGROV-1 24.7 µM | 786-0 17.9 µM | UO-31 41.5 µM | U-251 16.6 µM | M14 21.6 µM | NCI-H522 17.3 µM | SK-MEL-28 21.8 µM | UACC-257 85.1 µM | Malme-3M 29.4 µM | COLO 205 28.1 µM | MOLT-4 25.1 µM | SK-MEL-5 58.1 µM | HT-29 30.3 µM | RXF 393 18.2 µM | CAKI-1 41.9 µM

CC1=C2CCCC2=C/C(=N/Nc2ccc([N+](=O)[O-])cc2[N+](=O)[O-])CC1
inactive: SF-539 > 100 µM | SW-620 > 100 µM | IGROV-1 > 100 µM | 786-0 > 100 µM | UO-31 > 100 µM | U-251 > 100 µM | M14 > 100 µM | NCI-H522 > 100 µM | SK-MEL-28 > 100 µM | UACC-257 > 100 µM | Malme-3M > 100 µM | COLO 205 > 100 µM | MOLT-4 > 100 µM | SK-MEL-5 > 100 µM | HT-29 > 100 µM | RXF 393 > 100 µM | CAKI-1 > 100 µM

O=C(O)c1cc(-c2ccccc2O)nc2ccccc12
inactive: SF-539 > 100 µM | SW-620 > 100 µM | IGROV-1 > 100 µM | 786-0 > 100 µM | UO-31 > 100 µM | U-251 > 100 µM | M14 > 100 µM | NCI-H522 > 100 µM | SK-MEL-28 > 100 µM | UACC-257 > 100 µM | Malme-3M > 100 µM | COLO 205 > 100 µM | MOLT-4 > 100 µM | SK-MEL-5 > 100 µM | HT-29 > 100 µM | CAKI-1 > 100 µM

O=C(Nc1cccc(NC(=O)c2cc(=O)c3ccccc3o2)n1)c1cc(=O)c2ccccc2o1
inactive: SF-539 20.3 µM | SW-620 > 100 µM | IGROV-1 38.2 µM | 786-0 > 100 µM | UO-31 10.4 µM | U-251 66.8 µM | M14 12.3 µM | NCI-H522 15 µM | SK-MEL-28 62.4 µM | UACC-257 56.5 µM | Malme-3M > 100 µM | COLO 205 74.3 µM | MOLT-4 49.4 µM | SK-MEL-5 64.9 µM | RXF 393 20.8 µM | CAKI-1 > 100 µM

Cc1ccc(S(=O)(=O)n2cc(/C=C/C#N)c(/C=C/C#N)c2)cc1
inactive: SF-539 > 100 µM | SW-620 40 µM | IGROV-1 > 100 µM | 786-0 > 100 µM | UO-31 23.4 µM | U-251 94.8 µM | M14 89.7 µM | NCI-H522 > 10 µM | SK-MEL-28 > 100 µM | UACC-257 82 µM | Malme-3M > 100 µM | COLO 205 > 100 µM | MOLT-4 29.3 µM | SK-MEL-5 39.2 µM | HT-29 > 100 µM | RXF 393 33.7 µM

C#CCN(C)C(=O)N(CC#C)N=O
inactive: SF-539 > 100 µM | SW-620 > 100 µM | IGROV-1 > 100 µM | 786-0 > 100 µM | UO-31 > 100 µM | U-251 54.2 µM | M14 > 100 µM | NCI-H522 > 100 µM | SK-MEL-28 > 100 µM | UACC-257 > 100 µM | Malme-3M > 100 µM | COLO 205 > 100 µM | MOLT-4 > 100 µM | SK-MEL-5 > 100 µM | HT-29 > 100 µM | RXF 393 > 100 µM

COc1ccc(CNc2nc3ccccc3nc2-c2cccs2)cc1OC
inactive: SF-539 41 µM | SW-620 93.3 µM | 786-0 33.5 µM | UO-31 22.6 µM | U-251 75.5 µM | SK-MEL-28 84.5 µM | UACC-257 23.3 µM | Malme-3M 45.1 µM | COLO 205 9.98 µM | MOLT-4 12.6 µM | HT-29 46.2 µM | RXF 393 41.9 µM

Cc1ccc(C(=O)NC(C)C)cc1/N=N/N(C)C
inactive: SF-539 > 100 µM | SW-620 > 100 µM | IGROV-1 > 100 µM | 786-0 > 100 µM | UO-31 > 100 µM | U-251 > 100 µM | M14 > 100 µM | NCI-H522 > 100 µM | SK-MEL-28 > 100 µM | UACC-257 > 100 µM | SK-MEL-5 > 100 µM | HT-29 > 100 µM | CAKI-1 > 100 µM

CCOC(=O)CC1NC(=O)CS1 (configuration not stated)
inactive: SF-539 > 100 µM | SW-620 15.9 µM | IGROV-1 > 100 µM | 786-0 45.8 µM | UO-31 > 100 µM | U-251 > 100 µM | M14 > 100 µM | SK-MEL-28 > 100 µM | UACC-257 > 100 µM | Malme-3M > 100 µM | COLO 205 4.39 µM | MOLT-4 > 100 µM | SK-MEL-5 > 100 µM | HT-29 > 100 µM | CAKI-1 > 100 µM
